Where two headings read alike, the source gives them in different places.
Tested on: cancer cell lines from the cancer cell line encyclopedia (CCLE)
Assay: Cell line profiling (CLiP) proliferation experiment
Assay type: cell-based
Conditions: Homo sapiens; for IC50: read-out: Crossing Point; for EC50: read-out: Inflection Point
Method: Compound profiling experiment and data analysis was performed as previously described. Data was imported and plotted using the Tibco Spotfire DXP application. Lines were categorized as sensitive, intermediate and refractory as follows: Amax<-40 & Inflection Point <2 ~ Sensitive, Amax>-20 & Inflection Point >10 ~ Refractory, all else were called Intermediate. Cancer Cell line HG-U133 Plus 2 data was processed and normalized as described. […] Five sets of refractory cell lines were generated from the pool of refractory cell lines trying to match the lineage composition of the set of sensitive cell lines. The limma package was used as previously described to perform the statistical comparison.

[1] = RS4-11, RS4;11 (haematopoietic_and_lymphoid_tissue)
[2] = RS4-11, cell line RS4;11, haematopoietic_and_lymphoid_tissue, acute_lymphoblastic_B_cell_leukaemia
[3] = RT-112, cell line RT-112, urinary_tract, transitional_cell_carcinoma
[4] = RVH-421, cell line RVH-421, skin
[5] = SCaBER, cell line SCaBER, urinary_tract, transitional_cell_carcinoma
[6] = SET-2, cell line Set-2, haematopoietic_and_lymphoid_tissue, essential_thrombocythaemia
[7] = SF-126, cell line SF126, central_nervous_system, astrocytoma
[8] = SHP77, cell line SHP-77, lung, small_cell_carcinoma
[9] = SJRH30, cell line SJRH30, soft_tissue
[10] = SK-CO-1, cell line SK-CO-1, large_intestine, adenocarcinoma
[11] = SK-ES1, cell line SK-ES-1, bone
[12] = SK-MEL-24, cell line SK-MEL-24, skin
[13] = SK-MES-1, cell line SK-MES-1, lung, squamous_cell_carcinoma
[14] = SK-N-SH, cell line SK-N-SH, autonomic_ganglia
[15] = SKM-1, cell line SKM-1, haematopoietic_and_lymphoid_tissue, acute_myeloid_leukaemia

## CC(C)[C@@]12C[C@@H](O)[C@@](C)(O1)[C@@H]1CC[C@@H](C)[C@H]1[C@@H]2OC(=O)/C=C/c1ccccc1 [Englerin B]
[1]
  IC50: 17.9 µM
  EC50: 17.9 µM
[2]
  IC50: 17.9 µM
  EC50: 17.9 µM
RT-112, RT-112 cells
  IC50: 16.7 µM
  EC50: 16.7 µM
[3]
  IC50: 16.7 µM
  EC50: 16.7 µM
RVH-421, RVH-421 cells
  IC50: > 30 µM
  EC50: 11.6 µM
[4]
  IC50: > 30 µM
  EC50: 11.6 µM
Raji, Raji cells
  EC50: 18.4 µM
Raji, cell line Raji
  IC50: 17.6 µM
  EC50: 18.4 µM
Rec1, REC-1 cells
  IC50: 18.4 µM
  EC50: 18.4 µM
Rec1, cell line REC-1
  IC50: 18.4 µM
  EC50: 18.4 µM
Rh18, RH-18 cells
  IC50: > 30 µM
Rh18, cell line RH-18
  IC50: > 30 µM
Rh41, RH-41 (soft_tissue)
  EC50: 11.6 µM
Rh41, cell line RH-41
  IC50: 11.6 µM
  EC50: 11.6 µM
SCaBER, SCaBER (urinary_tract)
  IC50: > 30 µM
  EC50: 12.9 µM
[5]
  IC50: > 30 µM
  EC50: 12.9 µM
SET-2, Set-2 (haematopoietic_and_lymphoid_tissue)
  EC50: 22.9 µM
[6]
  IC50: 15.9 µM
  EC50: 22.9 µM
SF-126, SF126 cells
  EC50: 12.3 µM
[7]
  IC50: 23.2 µM
  EC50: 12.3 µM
SF-295, cell line SF-295, central_nervous_system, astrocytoma_Grade_IV
  IC50: 19.8 µM
SHP77, SHP-77 cells
  IC50: > 30 µM
  EC50: 14.5 µM
[8]
  IC50: > 30 µM
  EC50: 14.5 µM
[9]
  IC50: 17.4 µM
  EC50: 15.5 µM
SJSA-1, SJSA-1 cells
  EC50: 16.1 µM
SJSA-1, cell line SJSA-1, bone
  IC50: 29.1 µM
  EC50: 16.1 µM
SK-BR-3, SK-BR-3 cells
  IC50: > 30 µM
SK-BR-3, cell line SK-BR-3, breast
  IC50: > 30 µM
SK-CO-1, SK-CO-1 (large_intestine)
  EC50: 11.6 µM
[10]
  IC50: 17.8 µM
  EC50: 11.6 µM
[11]
  IC50: 21.6 µM
  EC50: 20.4 µM
SK-LMS-1, SK-LMS-1 cells
  IC50: > 30 µM
SK-LMS-1, cell line SK-LMS-1, soft_tissue
  IC50: > 30 µM
SK-LU-1, SK-LU-1 (lung)
  IC50: > 30 µM
SK-LU-1, cell line SK-LU-1, lung, adenocarcinoma
  IC50: > 30 µM
SK-MEL3, SK-MEL-3 cells
  IC50: > 30 µM
SK-MEL3, cell line SK-MEL-3, skin
  IC50: > 30 µM
SK-MEL-1, cell line SK-MEL-1, skin
  IC50: 19.6 µM
SK-MEL-2, SK-MEL-2 (skin)
  IC50: > 30 µM
SK-MEL-2, SK-MEL-2, second row, PRIMARY_SITE (Empty)
  IC50: > 30 µM
SK-MEL-2, cell line SK-MEL-2, skin
  IC50: > 30 µM
SK-MEL-5, SK-MEL-5 (skin)
  IC50: > 30 µM
SK-MEL-5, cell line SK-MEL-5, skin
  IC50: > 30 µM
SK-MEL-24, SK-MEL-24 (skin)
  IC50: > 30 µM
[12]
  IC50: > 30 µM
  EC50: 11.1 µM
SK-MEL-30, cell line SK-MEL-30, skin
  IC50: 28 µM
SK-MES-1, SK-MES-1 cells
  EC50: 25 µM
[13]
  IC50: 26.5 µM
  EC50: 25 µM
SK-N-AS, SK-N-AS (autonomic_ganglia)
  IC50: > 30 µM
SK-N-AS, cell line SK-N-AS, autonomic_ganglia
  IC50: > 30 µM
SK-N-DZ, SK-N-DZ cells
  IC50: > 30 µM
SK-N-DZ, cell line SK-N-DZ, autonomic_ganglia
  IC50: > 30 µM
SK-N-FI, SK-N-FI (autonomic_ganglia)
  IC50: > 30 µM
SK-N-FI, cell line SK-N-FI, autonomic_ganglia
  IC50: > 30 µM
SK-N-SH, cell line SK-N-SH (autonomic_ganglia, NS)
  IC50: > 30 µM
[14]
  IC50: > 30 µM
  EC50: 7.74 µM
SK-OV-3, SK-OV-3 (ovary)
  IC50: > 30 µM
SK-OV-3, cell line SK-OV-3, ovary, adenocarcinoma
  IC50: > 30 µM
SK-UT-1, SK-UT-1 (soft_tissue)
  IC50: > 30 µM
SK-UT-1, cell line SK-UT-1, soft_tissue
  IC50: > 30 µM
[15]
  IC50: 21.1 µM
  EC50: 24.5 µM
SKM-1, cell line SKM-1
  IC50: 21.1 µM
SKNBE2, cell line SK-N-BE(2), autonomic_ganglia
  IC50: > 30 µM
SKNBE2, cell line SK-N-BE(2)
  IC50: > 30 µM
SNB-19, SNB-19 cells
  IC50: > 30 µM
SNB-19, cell line SNB-19, central_nervous_system, astrocytoma_Grade_IV
  IC50: > 30 µM
SNU1, SNU-1 (stomach)
  IC50: > 30 µM
  EC50: 12.1 µM

From paper PMC4476799, “Englerin A Agonizes the TRPC4/C5 Cation Channels to Inhibit Tumor Cell Line Proliferation” (PLoS ONE, 2015)
